Test results from ChEMBL document CHEMBL3217509, “Discovery of an HIV integrase inhibitor with an excellent resistance profile” (Medchemcomm, 2013).

Assays:
[1] = Intrinsic clearance in human hepatocytes assessed assessed per million of cells by LC-MS/MS analysis; assay type: ADME, cell-based, Hepatocyte; conditions: read-out: CLH
[2] = Intrinsic clearance in human liver microsomes assessed per mg of protein by LC-MS/MS analysis in presence of UDPGA; assay type: ADME; conditions: read-out: CLH
[3] = system: Human immunodeficiency virus 1; assay: Antiviral activity against HIV1 NL4-3 infected in human MT2 cells after 3 days by human JC53BL cell-based beta-galactosidase reporter gene assay; assay type: functional, organism-based; conditions: Human immunodeficiency virus 1, NL4-3, JC53BL, 72 h
[4] = Intrinsic clearance in human liver microsomes assessed per mg of protein by LC-MS/MS analysis; assay type: ADME; conditions: read-out: CLH
[5] = Aqueous solubility of the compound at pH 7.4; assay type: physicochemical; conditions: buffer
[6] = Inhibition of DNA polymerase beta (unknown origin); design: species or system Homo sapiens
[7] = Inhibition of DNA polymerase alpha (unknown origin); design: species or system Homo sapiens

Row | hepatocyte CLint [1] [µL/min/1e6 cells] | microsomal CLint [2] [µL/min/mg] | IC50 [3] [nM] | microsomal CLint [4] [µL/min/mg] | solubility [5] [µg/mL] | IC50 [6] [nM] | IC50 [7] [µM] | Structure (SMILES)
1 | 34.3 | 18 | 19 | 12.5 | – | – | – | COc1cc(Cn2ccc3c4c(ncc32)C(=O)N(O)CC4)ccc1F
2 | 5.9 | 3.5 | 6 | 32 | < 1 | – | – | COCCNC(=O)c1c(O)c2ncc3c(ccn3Cc3ccc(F)cc3)c2[nH]c1=O
3 | 2.9 | < 3.5 | 1 | 17.3 | < 1 | – | – | O=C(NCCO)c1c(O)c2ncc3c(ccn3Cc3ccc(F)cc3)c2[nH]c1=O
4 | – | – | – | – | – | 1960 | 7.17 | Cc1cn([C@H]2CC[C@@H](COP(=O)(O)OP(=O)(O)OP(=O)(O)O)O2)c(=O)[nH]c1=O
